Assay: Diffusion of a fluorescent probe in swollen gelatin gel by FRAP
Format: physicochemical
Settings: coating thickness 60 μm, diffusion coefficient 9×10−12 m2s−1
Text: To assess the stability of DTPA[Gd(III)] in the gelatin coating, the diffusion of a fluorescence probe in gelatin was studied by the technique of fluorescence recovery after photobleaching (FRAP). The instrument and data analysis scheme are described in Kim, S. H. and Yu, H., J. Phys. Chem. 1992, 96, 4034, which is hereby fully incorporated by reference. Fluorescein was used as the fluorescence probe due, in part, to its molecular size being roughly the same as that of DTPA[Gd(III)]. The focus of the study was to examine the possible retardation effects of gelatin concentration and cross-link density on the diffusion, which was determined at room temperature, i.e., below the gel point of gelatin. The diffusion of fluorescein probe slows down with the increase of gelatin concentration. The diffusion coefficient decreases from 1.5×10−10 to 9×10−12 m2s−1 when the concentration of gelatin increases from 9% to 40%. […] Accordingly, the probe diffusion is more likely controlled by the concentration of gelatin rather than the cross-link density. On the other hand, the cross-link density may determine the swelling ratio of gelatin, i.e., the concentration of gelatin in aqueous solution. […]

O=C(O)CN(CCN(CC(=O)O)CC(=O)O)CCN(CC(=O)O)CC(=O)O [DTPA, diethylenetriaminepentaacetic acid]
time to diffuse out of the gelatin coating: about 67 seconds

Source: patent publication US20070156042A1, “Medical device system and method for tracking and visualizing a medical device system under MR guidance” (priority 2005, published 2007)
